# Results taken from US4910216A, “2-(3,5-dimethyl-4-hydroxyphenyl)indole derivatives” (Teikoku Hormone Mfg. Co., Ltd., priority 1988, dated 1990).
# Assays:
# lipoxygenase [1] = settings: known inhibitors; cited from earlier work
# cyclooxygenase = settings: known inhibitors; cited from earlier work
# lipoxygenase [2] = assay: Inhibition of leukotriene formation (LTC4, LTD4, LTE4 in pleural exudate, HPLC) in A23187-induced pleurisy, oral administration; format: in vivo, rats (Wistar-strain, male); settings: rat pleural exudate, 3 mg/kg p.o., 60 minutes before intrapleural A23187
# Description: (1) Preparation of A23187 -induced pleurisy
# Under ether anaesthesia, 0.2 ml of 100,μM […] (prepared by adding injectable distilled water in a 2mM A23187 ethanol solution) was administered intrapleurally to rats (Wistar-strain, male, 11 weeks old). Twenty minutes after the administration, the rats were exsanguinated and the pleural exudate was harvested. The test compound was suspended or dissolved in a 0.5% carboxymethyl cellulose solution containing 2% Tween, and orally administered to the animals 60 minutes before the intrapleural administration of A23187.
# (2) Measurement of the leukotrienes [LTC4, LTD4 and LTE4 ]
# To the exudate obtained in (1) was added 4 times its volume of ice-cooled ethanol. They were well mixed, and then centrifuged. The supernatant was concentrated under reduced pressure, and 1.0 ml of 0.01M acetate buffer (pH 5.9) was added to the residue. The solution was added to SEP-PAK® (C18) and leukotrienes were partially purified. Fractions eluted with 5 ml of 60% ethanol/0.01M acetate buffer (pH 5.9) were collected, and the solvent was evaporated under reduced pressure.
# The residue was dissolved in 1 ml of methanol, and the solution was filtered on a filter having a pore size of 0.45 microns, and evaporated under reduced pressure. The residue was dissolved in the mobile phase (acetonitrile/water/acetic acid/triethylamine, 35/63.5/1.5/2.2) used in high performance liquid chromatography (HPLC) and subjected to analysis by HPLC. A calibration curve was obtained by a fixed amount of PGB2 as an internal standard substance and standard LTC4, LTD4 and LTE4 were added to a buffer, followed by the same extraction, partial purification and HPLC analysis as above. The amounts of the leukotrienes in the sample were calculated from the calibration curve.
# The activity of 2-(4-hydroxy-3,5-dimethylphenyl)-5-methoxy-3-methylindole (compound A) which is disclosed in Example 1 of U.S. Pat. No. 4,695,381 and was selected as an active control is also shown below.
Structure (SMILES),lipoxygenase inhibition (lipoxygenase [1]),cyclooxygenase inhibition (lack of specificity) (cyclooxygenase),percent inhibition of LTC4 + LTD4 + LTE4 (lipoxygenase [2]) [%],"LTC4 + LTD4 + LTE4 (lipoxygenase [2]; mean ± S.E.M., vehicle 414.82 ± 49.81 ng) [ng]"
"CCCCCC#CCC#CCC#CCC#CCCCC(=O)O [5,8,11,14-eicosatetraynoic acid]",inhibit not only lipoxygenase,lack specificity and inhibit not only lipoxygenase but also cyclooxygenase,–,–
"NC1=NN(c2cccc(C(F)(F)F)c2)CC1 [BW755C, 3-amino-1-(3-trifluoromethylphenyl)-2-pyrazoline]",inhibit not only lipoxygenase,lack specificity and inhibit not only lipoxygenase but also cyclooxygenase,–,–
"COc1ccc2[nH]c(-c3cc(C)c(O)c(C)c3)c(C)c2c1 [Compound A, 2-(4-hydroxy-3,5-dimethylphenyl)-5-methoxy-3-methylindole]",–,–,32.0,–
COc1ccc2[nH]c(-c3cc(C)c(OC(=O)CCC(=O)O)c(C)c3)c(C)c2c1 [Example 1],–,–,53.4,193.30 ± 28.37
